Measured values taken from the METLIN SMRT retention time set (Domingo-Almenara et al. 2019).

Assay: gradient 5% acetonitrile 3 min, to 50% in 2 min, to 85% in 15 min, held 3 min, 100 µL/min
Settings: column: Zorbax Extend-C18 2.1 x 50 mm; eluents: water / acetonitrile, 0.1% formic acid
Summary of the method: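 Retention times come from adduct peaks that were picked computationally and then checked by hand. The standards, pure and pooled in mixtures of ~100 molecules, were run on a Zorbax Extend-C18 column (2.1 × 50 mm, 1.8 μm) at 100 μL/min with water and acetonitrile, each with 0.1% formic acid. Detection was by quadrupole time-of-flight mass spectrometry in positive and negative ionization mode, with a dead volume of 40 μL and a dwell volume of 900 μL.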

RP-LC retention time [s] | Structure (SMILES)
605 | CCN(CC)c1ccc(C(=O)N2CCC(c3cc(N)on3)CC2)cc1
1020 | CC1CCN(c2cnn(CC(=O)Nc3cccc(Cl)c3F)c(=O)c2Cl)CC1
603 | CCOC(=O)C1CCN(C(=O)C2CCN(c3cncnc3N(C)C)CC2)CC1
587 | Cc1cc(N2CCN(C)CC2)nc2ccc(NC(=O)Nc3ccc(F)cc3)cc12
1190 | CCCCN1C(=O)C(C)(C(=O)N2CCN(c3ccccc3F)CC2)Oc2cccnc21 (configuration not stated)
809 | O=C([C@@H]1C[C@H](F)CN1C(=O)NCc1ccc(OC(F)(F)F)cc1)N1CCCCC1
618 | Oc1cc2c(c(Cl)c1O)CCNCC2c1ccccc1 (configuration not stated)
777 | COc1ccc(-n2nc3c(N4CCCC(C(=O)NCCCc5ccccc5)C4)nnc(C)c3c2C)cc1 (configuration not stated)
825 | Cc1cc(-c2nnc(C3CC3)o2)c(C)n1CC(=O)Nc1cccc(F)c1
906 | COC(=O)c1ccc(NC(=O)N(C)CCc2noc(C3CCCCC3)n2)cc1
722 | Cn1cnc(S(=O)(=O)NCCN2C(=O)C3(CCCCC3)C2c2ccccc2)c1 (configuration not stated)
785 | CC(C)NC(=O)C1CCCN(c2nc3ncn(CC(=O)Nc4ccc(C(C)C)cc4)c(=O)c3s2)C1 (configuration not stated)
929 | Cc1cc(C(=O)N2c3ccccc3CC2c2nc(C3CC3)no2)nn1C (configuration not stated)
896 | CSc1cccc(NC(=O)Cn2c(=O)n(-c3ccc(F)cc3)c(=O)c3c2cc(C)n3C)c1
640 | CC1CN(S(=O)(=O)c2cccc(-c3cn4ccccc4n3)c2)CC(C)O1 (configuration not stated)
637 | Cn1cnnc1C1CCCCN1C(=O)c1cc(-c2cccs2)[nH]n1 (configuration not stated)
848 | O=S(=O)(c1cccn2c(SCc3ccc(Cl)cc3)nnc12)N1CCCC1
604 | CCC(=O)N1CCN(c2nc(C)cc(N3CCCC3)n2)CC1
1240 | Cc1nn(-c2nc(-c3ccc(F)cc3)cs2)c(C)c1CC(=O)Nc1ccc(Br)cc1
959 | COc1ccc(C2(c3nc(CCS(=O)(=O)c4ccccc4)no3)CC2)cc1
652 | COc1ccc(C2C(C(=O)NCC3CCCO3)c3cc(OC)c(OC)cc3C(=O)N2C)cc1OC (configuration not stated)
944 | COc1cccc(CNC(=O)Cn2c(=O)cc(-c3nc(C(C)C)no3)c3ccccc32)c1

RP-LC retention time [s] | Structure (SMILES)
804 | CCOC(=O)C1CCN(S(=O)(=O)c2c(C)nc3sc(C)nn23)CC1
1260 | CC(C)c1ccc(N2C(=O)C3N=NN(Cc4nc(-c5cccc(C(F)(F)F)c5)no4)C3C2=O)cc1 (configuration not stated)
1020 | CCN(CC)S(=O)(=O)c1ccc2c(c1)N(CC(=O)NCc1ccccc1C)C(=O)C1CCCCN21 (configuration not stated)
743 | COc1ccc(N2CC(c3nc(-c4cc(OC)c(OC)c(OC)c4)no3)CC2=O)cc1 (configuration not stated)
646 | CC1CCN(c2ccc(-c3noc(CN4CCN(CC(=O)NC(C)C)CC4)n3)cn2)CC1
729 | Cc1cccc2c1NC(=O)C2(O)CC(=O)c1ccccc1Cl (configuration not stated)
998 | Cc1nc(C(=O)Nc2cc(F)ccc2F)c(C)o1
880 | O=C(NCc1ccccc1Br)C1CCN(c2nnc(-c3ccccc3)o2)CC1
682 | CCCNC(=O)C1CCN(c2ccc(SCC(=O)Nc3ccc(F)cc3Cl)nn2)CC1
733 | CCOc1ccccc1NC(=O)NCCc1cn(C)c2ncccc12
687 | COc1ccc(NC(=O)C2CC(=O)N(c3ccc4c(c3)CCN4C(C)=O)C2)cc1F (configuration not stated)
1010 | COC(=O)C1=C(C)NC(C)=C(C(=O)OC(C)(C)CN(C)CCC(c2ccccc2)c2ccccc2)C1c1cccc([N+](=O)[O-])c1 (configuration not stated)
1210 | CCc1nc2cc(-c3noc(-c4cccc(OC)c4)n3)ccc2o1
631 | O=C(Nc1cnc(N2CCCC2)c(C(=O)O)c1)c1ccc(Cl)cc1
562 | CC(C)N1CCN(C(=O)c2ccc(-c3ccnc(N4CCCC4)n3)cc2)CC1
1010 | COc1ccc(Cl)cc1NC(=O)N1CCCC1c1nc(-c2ccccc2OC)no1 (configuration not stated)
961 | COc1ccc(-c2ncc3c(n2)CCN(C(=O)Nc2ccccc2Br)C3)cc1
842 | CCCN(C)c1nccnc1OC1CCN(C(=O)C(CC)CC)C1 (configuration not stated)
882 | COc1cccc(Cn2cc(S(=O)(=O)N3CCCCC3)ccc2=O)c1
680 | CCc1ccc(S(=O)(=O)c2cnc(N3CCN(c4ccccn4)CC3)nc2N)cc1
761 | O=C(CN1C(=O)CCc2cc(Br)ccc21)Nc1ccccn1
703 | CCOC(=O)CC1(NC(=O)N2CCN(c3nc4ccccc4n3CC)CC2)CCCCC1

RP-LC retention time [s] | Structure (SMILES)
918 | CCc1nc2ccccc2c(=O)n1Cc1noc(-c2ccc(OC)cc2OC)n1
587 | O=C(O)CCC1CCN(c2cc(NC3CC3)ncn2)CC1
840 | Cc1ccc(C)c(N2C(=O)CN(S(C)(=O)=O)CC2(C)C(=O)NCc2ccc(F)cc2)c1 (configuration not stated)
771 | O=C(NCc1csc(C2CCCN(C(=O)c3cc(F)cc(F)c3)C2)n1)C1CCC1 (configuration not stated)
677 | COc1cccc(N2CCN(CC(O)c3ccc(C)cc3)CC2)c1 (configuration not stated)
1080 | CCc1nc2cc(-c3noc(Cc4cc(OC)cc(OC)c4)n3)ccc2o1
860 | CCc1noc(NC(C)=O)c1-c1ccc(OC)c(S(=O)(=O)N2CCc3ccccc32)c1
703 | O=C(Cn1cnc(-c2ccc(F)cc2)cc1=O)NCc1cccs1
960 | Cc1ccc2c(c1)N(S(C)(=O)=O)CCC(C(=O)Nc1ccc(F)c(F)c1)O2 (configuration not stated)
1060 | CCOc1cccc(-c2noc(-c3nn(-c4ccc(C)c(C)c4)ccc3=O)n2)c1
1120 | COc1cccc(N2CCN(S(=O)(=O)c3cc(-c4cc(C(F)(F)F)[nH]n4)sc3C)CC2)c1
1100 | Cc1oc2ccn(Cc3ccc(F)cc3)c(=O)c2c1C(=O)NCc1ccc(F)cc1F
726 | COc1ccc(-c2nc(-n3c(C)c4c(C)nnc(C)c4c3C)sc2C)cc1
1280 | Cc1ccc(Sc2nccnc2N2CCCC(C(=O)Nc3ccc(Br)cc3)C2)cc1 (configuration not stated)
935 | O=c1n(Cc2cccc(Cl)c2)nc2c(S(=O)(=O)N3CCCCC3)cccn12
573 | CN(C)c1ccc(C(CNS(C)(=O)=O)N2CCc3ccccc3C2)cc1 (configuration not stated)
904 | Cc1noc(-c2cc(=O)n(CC(=O)Nc3cc(F)cc(F)c3)c3ccccc23)n1
924 | Cc1csc(-c2cc(S(=O)(=O)NCc3cccs3)c(C)n2C)n1
829 | COc1ccc(OC)c(NC(=O)C2CCCN2S(=O)(=O)c2cc3c(cc2Cl)NC(=O)CO3)c1 (configuration not stated)
597 | COCCNc1nc(Nc2ccc(C)c(C)c2)c2nccnc2n1
742 | O=C(Nc1ccccc1)N1CCC(n2cnc3cc(F)ccc3c2=O)CC1
949 | CC(C)(C)NC(=O)c1cc2c(n(-c3ccc(C(F)(F)F)cc3)c1=O)CCCC2=O

RP-LC retention time [s] | Structure (SMILES)
695 | Cc1cccn2c(NC(=O)c3cc4ccccc4oc3=O)c(-c3ccccc3)nc12
648 | Cc1ccn2cc(-c3ccc(NC(=O)c4ccc(F)cc4)cc3)nc2n1
734 | Cc1ccsc1CN1CCc2nc(N3CCN(c4ccc(F)cc4)CC3)ncc2C1
1160 | Cc1nc(-c2ccc(-c3noc(COc4ccc(F)cc4)n3)cc2)cs1
679 | CCc1nc2c(c(=O)n1CC(=O)Nc1cc(C)ccc1C)CN(Cc1ccccc1)CC2
657 | Cc1cnc(C2CCC2)n1CC1CCN(C(=O)NC2CCCCC2)CC1
781 | CN(C)C(=O)CCc1ccc2c(c1)CN(C(=O)CC1CCCC1)CCO2
604 | COCc1cc(=O)n(CC(=O)Nc2c(C)cccc2C)c(N)n1
1070 | COc1ccc(-c2nnc(Cc3nc(-c4ccc(Cl)cc4)no3)o2)cc1
585 | Cc1ccc(NC(=O)N2CCc3[nH]cnc3C2c2ccncc2)cc1Cl (configuration not stated)
907 | Cc1ccc(-c2cnn(CC(=O)Nc3ccc(Br)cc3)c(=O)n2)cc1
1130 | CC1=NS(=O)(=O)N(Cc2ccccc2)C=C1C(=O)OCc1noc(-c2cccc(Cl)c2)n1
593 | O=C(Cn1c(=O)c2cccn2c2ccccc21)NCCCN1CCCC1
842 | Cc1ccc(C)c(NC(=O)NC2CCN(c3ccc(F)cc3)C2=O)c1 (configuration not stated)
704 | CSc1ccc(-c2nc3cnccn3c2Nc2cccc(C(=O)N3CCOCC3)c2)cc1
586 | CNC(=O)[C@@H]1CN(C(=O)c2cccc(Br)c2)C[C@H]1CO
849 | O=C(c1ccco1)N1CCN=C1SCc1cccc(C(F)(F)F)c1
565 | CNC(=O)[C@@H]1CN(C(=O)Cc2ccsc2)C[C@H]1c1n[nH]c(C)n1
800 | CCc1noc2nc(C)n(CC(=O)NCCc3ccccc3)c(=O)c12
906 | COCC(=O)N(CC(=O)N1CCc2sccc2C1COc1ccc(F)cc1)C(C)(C)C (configuration not stated)

Structure (SMILES) | RP-LC retention time [s]
Cc1cc(OCC(=O)N[C@@H](CC(C)C)C(=O)O)c2c3c(c(=O)oc2c1)CCCC3 | 894
